# Data as given in ChEMBL document CHEMBL1156829 (Proc Natl Acad Sci U S A, 2008).
# How the values were obtained:
# [1] = NOVARTIS: Cytotoxicity against human hepatocellular carcinoma cell line (Huh7); type: toxicity, cell-based, Huh-7; conditions: Huh7 cells (hepatocellular carcinoma cell line)
# Plasmodium falciparum [2] = test: NOVARTIS: Inhibition of Plasmodium falciparum 3D7 (drug-susceptible) proliferation in erythrocyte-based infection assay; type: functional, organism-based
# Plasmodium falciparum [3] = test: NOVARTIS: Inhibition of Plasmodium falciparum W2 (drug-resistant) proliferation in erythrocyte-based infection assay; type: functional, organism-based; conditions: read-out: EC50
SMILES,CC50 [1] [µM],"EC50 (Plasmodium falciparum [2]; Plasmodium falciparum, 3D7) [µM]","EC50 (Plasmodium falciparum [3]; Plasmodium falciparum, W2) [µM]",EC50 (Plasmodium falciparum [2]) [µM],EC50 (Plasmodium falciparum [3]) [µM]
CCOc1ccc2[nH]c(=O)c(CN(Cc3ccccc3OC)C(C)=O)cc2c1,> 10,> 1.74,> 1.21,,
c1ccc(CSc2nnc3c(n2)[nH]c2ccccc23)cc1,> 10,1.3,1.32,> 1.06,> 0.748
COc1ccc(CN2CCN(Cc3ccc(OC)c(C)c3C)C(CCO)C2)c(O)c1 (configuration not stated),> 44.1,1.65,0.319,,
CN(C)[C@@H]1CCN(Cc2cccc(Cl)c2)C[C@@H]1CCC(=O)NCCCN1CCOCC1,> 2.94,0.593,< 0.0154,,
O=C(O)c1c(F)cccc1Cl,> 100,> 7.73,2.85,,
CCOC(=O)c1c(NC(=O)CSc2nnc(CNC(=O)c3ccc(C)c(C)c3)n2C2CCCCC2)sc2c1CCC2,> 10,> 1.09,> 1.4,,
COc1ccc(C=Cc2cc[n+](C)cc2)cc1OC,> 100,1.82,1.01,,
Oc1ccc(Nc2nc(NCc3ccco3)c3ccccc3n2)cc1,19.7,0.0861,1.11,,
CCN(CC)CCCC(C)N=c1[nH]c(C=Cc2ccccc2OC)nc2cc(Cl)ccc12 (configuration not stated),7.93,0.0308,0.16,,
N#C/C(=C\n1cc(Cc2ccc(Cl)cc2Cl)c2ccccc21)c1nn(CCO)c(N)c1C#N,> 10,0.913,0.929,,
COc1ccc(-n2c(SCC(=O)Nc3cc(Cl)ccc3OC)nnc2-c2ccccc2)cc1,> 11.5,> 1.1,< 0.00106,,
c1ccc2cc3c(Nc4ccc(N5CCOCC5)cc4)ccnc3cc2c1,69.5,0.672,0.0839,,
COC(=O)C1=C(C)NC2=C(C(=O)CC(c3ccccc3Cl)C2)C1c1ccc([N+](=O)[O-])cc1 (configuration not stated),> 100,0.114,0.105,,
CCc1ccc2c(c1)C1(NN=C(c3ccc(C)cc3)S1)C(=O)N2 (configuration not stated),23.8,1.49,2.1,,
CCCOC(=O)C1=C(C)NC2=C(C(=O)CC(c3ccc(OC)c(OC)c3)C2)C1c1ccc(Br)cc1 (configuration not stated),> 100,0.0377,0.0469,,
CSc1cccc(NC(=O)C2C3C=CC4(O3)C2C(=O)N(CCN2CCCCC2)C4C(=O)NC2CCCC(C)C2C)c1 (configuration not stated),48.1,> 11.1,1.9,,
CCCCCCCSc1c(O)c2ccc(Cl)cc2[nH]c1=O,> 10,0.122,0.272,,
COC(=O)c1cccc(-c2cc(Cl)c3c(c2)CC(CNC(=O)c2c(C)noc2C)O3)c1 (configuration not stated),75.9,0.881,0.786,,
COc1ccc(-c2nnc(NC(=O)CCN(CCc3ccc(OC)c(OC)c3)C(=O)c3cccc4ccccc34)s2)cc1,> 13.6,0.934,> 1.2,,
O=C(NN=Cc1ccc(O)cc1O)c1ccncc1,> 100,4.75,1.88,,
c1ccc(C[C@H]2CN(c3ccccc3)CCN2CCNCCOc2ccccc2)cc1,> 5.32,0.261,0.2,,
CCCCC(=O)NC(c1cccc([N+](=O)[O-])c1)c1ccc2cccnc2c1O (configuration not stated),18.8,0.376,0.267,,
CCOc1ccc(N2C(N)=NC(N)=NC2(C)C)cc1,> 100,0.079,> 12.5,,
COc1ccc(OC)c(-c2csc(N(CCCN(C)C)C(=O)Cc3ccccc3)n2)c1,17.7,4.05,3.43,,
N#Cc1cccc(/C=C/C(=O)O)c1,> 10,1.65,0.752,,

SMILES,CC50 [1] [µM],"EC50 (Plasmodium falciparum [2]; Plasmodium falciparum, 3D7) [µM]","EC50 (Plasmodium falciparum [3]; Plasmodium falciparum, W2) [µM]",EC50 (Plasmodium falciparum [2]) [µM],EC50 (Plasmodium falciparum [3]) [µM]
COc1ccccc1CNC(=O)c1nn(-c2ccc(Cl)cc2)c(=O)c2ccccc12,> 100,1.09,2.82,,
COc1ccc(C=CC(=O)Nc2ccc3nc(N4CCN(C)CC4)cc(C)c3c2)cc1OC,55.2,0.708,0.946,,
CCCCNC(=O)c1ccc2c(c1)N=C(c1cccnc1)N(CCN1CCOCC1)C2,> 10.4,> 1.25,> 1.06,,
O=C(Cc1cccs1)N1CCN(c2ccccn2)CC1,> 100,3.95,1.93,,
COc1ccc(C2CC(=O)C3=C(C2)NC(C)=C(C(=O)OC2CCCC2)C3c2ccc([N+](=O)[O-])cc2)cc1OC (configuration not stated),> 100,0.031,0.0148,,
COc1cc(NC(C)CCCN(Cc2ccc(Cl)cc2)C(=O)C(C)C)c2ncccc2c1 (configuration not stated),13.2,1.68,1.12,,
Cn1c(=O)n(Cc2ccccc2)c(=O)c2c1nc(SCC(=O)Nc1ccccc1)n2Cc1ccccc1,> 100,1.85,0.362,,
CCN1/C(=C\C=C\C2=[N+](C)c3ccccc3C2(C)C)N(c2ccccc2)c2ccccc21,> 10,1.41,1.26,,
O=C(Cn1ccc(=NCc2ccccc2)cc1)c1ccc(I)cc1,20.8,0.308,0.448,,
CC(C)NC(=O)[C@@H]1C[C@@H](NCc2cccnc2)CN1Cc1ccc2ccccc2c1,> 100,> 10.9,3.31,,
c1cc2cc(CN3CCc4nc(N5CCCCC5)sc4C3)ccc2[nH]1,> 10,0.41,0.326,,
O=C1c2ccccc2C2=Nc3ccccc3SC(c3cccc(F)c3)C12 (configuration not stated),30.3,0.0867,0.135,,
CCC(c1nc2ccccc2c(=O)n1-c1ccc(F)cc1)N(CCc1ccccc1)C(=O)COc1ccccc1 (configuration not stated),> 10,1.03,1.15,,
O=C(NCc1ccc(Cl)cc1)C(=O)NCc1ccccn1,8.24,1.32,0.105,,
CC(C)N(C)Cc1cc(-c2nc3ccccc3s2)ccc1O,> 100,7.87,0.509,,
O=C(Nc1ccc2oc(-c3cccc4ccccc34)nc2c1)c1ccc([N+](=O)[O-])o1,> 100,5.06,2.65,,
CC(C)CC(NC(=O)/C(=C\c1ccco1)NC(=O)c1ccccc1)C(=O)OCc1ccccc1 (configuration not stated),> 10,> 1.25,> 0.625,,
CC(C)CNC(=O)c1cnc(NCCCn2ccnc2)nc1NCCc1ccccc1,> 10,0.6,0.61,,
O=C1NN(c2ccc(Br)cc2)C(=O)/C1=C\c1c(O)ccc2ccccc12,> 10,0.856,0.653,,
CC(C)(C)NS(=O)(=O)c1cc(Cl)ccc1Cl,> 10.9,> 1.25,0.73,,
Cn1nc(C(F)(F)F)c(C(=O)Nc2cccc(C(F)(F)F)c2)c1SCc1ccc(Cl)cc1,31.3,1.01,1.2,,
CCOC(=O)c1ccc(NC(=O)c2ccc(S(=O)(=O)N3CC(C)CC(C)C3)cc2)cc1 (configuration not stated),> 100,0.666,1.24,,
CCOC(=O)N1CCC(NC(=O)CSCc2nc(-c3cccc(OC)c3)oc2C)CC1,> 10,> 1.25,> 1.08,,
Cc1ccc(-c2cn3c([n+]2-c2ccccc2)SCC3)cc1,> 100,0.427,0.309,,
CCOC(=O)c1cc(-c2ccc(C)cc2)n(CCC(=O)Nc2cccc(C(F)(F)F)c2)c1C,33.7,0.823,0.327,,
